This experiment deals with Sprague-Dawley rats (preference for drug-paired white chamber). The experiment is described as follows: Conditioned Place Preference (CPP) conditioning and addiction with amphetamine, exploration on day 4 of withdrawal. Format: in vivo, male Sprague-Dawley rats. The text has this: A three (3) chambered CPP apparatus, measuring 75 cm×30 cm×25 cm, was employed. The single black, white and grey chambers could each be isolated from the other by a sliding door on either side of the central grey chamber. […] The floor of the white chamber was covered with shiny transparent Perspex; while the floor of the black chamber was covered with wire mesh and sawdust, creating two contrasting chambers with distinct visual and tactile cues, representing a biased paradigm. The apparatus was thoroughly cleaned with a dilute solution of disinfectant upon completion of exploration by each rat.
Twenty four (24), three (3) month old male Sprague-Dawley rats, weighing approximately 250-350 g each, were obtained from the University of the West Indies Faculty of Medical Sciences Animal House following ethical approval of the protocol by the FMS/UHWI/UWI Ethics Committee, on the Mona Campus of the University of the West Indies. Animals were housed in pairs, in a normal twelve (12) hour light: dark cycle and fed food and water ad libitum.
Phase 1: Pre-conditioning, selection and first group assignments: Animals were selected for inclusion in the experiment via pre-conditioning. They were allowed an initial twenty (20) minute exploration of the CPP apparatus, and scores of chamber entries and time counted from a video recording. Animals displaying ≥80% preference for the dark CPP chamber during pre-conditioning were selected and randomly assigned to one of two treatment groups, AMP or SAL, each containing twelve animals.
Phase 2: Conditioning: During the conditioning phase, rats assigned to the amphetamine treatment group (Group AMP) received 1 ml of amphetamine hydrochloride (sigma) dissolved in 0.9% saline, providing 5 mg/kg intraperitoneally (i.p.). Rats in Group SAL were given 1 ml of physiological saline intraperitoneally.
Conditioning consisted of 8 days of daily, group-assigned intraperitoneal injection and then immediate, individual confinement to the white, ‘aversive’ chamber for thirty (30) minutes. […]
Phase 3: Amphetamine addiction and drug withdrawal: On day 9, the addiction phase ensued, with a six (6) day period of exposure to a daily increasing amphetamine dose for the drug treated (Group AMP) animals. […] During this period, the number of entries made into each chamber and the time spent in each chamber were recorded for all rats via scores from video recordings of exploration.
All the resulting data were analyzed, using the SPSS 19 software. The mean percent time and entries into the white CPP chamber by each animal were scored from video recordings. […]

[1] abbreviates: Groups AMP-S and AMP-N, amphetamine 5-7 mg/kg i.p., t-test, p<0.001, hydrochloride.

“Also recorded” adds a separate entry of the source.

For `CC(N)Cc1ccccc1.Cl` (stereo not shown) [Amphetamine, amphetamine hydrochloride], the “percent time in the drug-paired white chamber during withdrawal versus saline treated groups” value (AMP-S and AMP-N combined n=12 versus SAL-S and SAL-N, p<0.01) is listed as “significantly increased”. Besides, the “percent entries into the drug-paired white chamber during withdrawal versus saline treated groups” value (AMP-S and AMP-N versus SAL-S and SAL-N, p<0.01) is reported as “significantly higher”. Also, under setting [1], the “percent entries into the drug-paired white chamber during withdrawal versus pre-conditioning” value is listed as “significantly more entries; also recorded: significantly increased” and the “percent time in the drug-paired white chamber during withdrawal versus pre-conditioning” value is recorded as “significantly more time; also recorded: significantly increased”.
